Results published in patent US9504676B2, “Molecules inhibiting a metabolic pathway involving the Syk protein tyrosine kinase and method for identifying said molecules” (CENTRE NATIONAL DE LA RECHERCHE SCIENTIFIQUE, priority 2008, dated 2016).

How the values were obtained:
BALB/c mice = assay: IgE-induced passive systemic anaphylaxis (PSA); format: in vivo
Method: Finally, to extend these observations to mast cell functions in vivo, the inventors tested the effects of C-13 on passive systemic (PSA) and cutaneous anaphylaxis (PCA) induced in BALB/c mice by administering DNP-specific IgE molecules followed by intravenous stimulation with DNP-KLH hapten. […] The intensity of systemic anaphylaxis was determined by measuring both the drop in body temperature and the increase in vascular permeability following antigen administration.
• 1) Chemical products and antibodies. A chemical bank of 3000 molecules (a varied subset) was acquired from ChemBridge, Inc. (San Diego, Calif.). Stocks of solutions of small molecules were prepared at a rate of 10 mM in DMSO (dimethylsulphoxide), except for C-13 (methyl 2-{5-[(3-benzyl-4-oxo-2-thioxo-1,3-thiazolidin-5-ylidene)methyl]-2-furyl}benzoate, ChemBridge ID No. 6197026) prepared in DMF (dimethylformamide). Unless specified otherwise, all the reagents were supplied by Sigma. […] The binding of G4G11 with Syk was assessed by adding the 9E10 monoclonal antibody conjugated with HRP detecting the amino acid sequence EQKLISEEDLN of human c-myc protein located at the C-terminal end of the scFv fragment. To generate Syk mutants, targeted mutagenesis was used on GST:Syk 6-242 protein and the binding of G4G11 with the mutants was assessed in the presence of 5 μM of C-13. • 3) Cells, culture conditions and functional tests. […]

Syk = biological target: T1, Syk (Rattus norvegicus, UniProt Q64725); assay: Phosphorylation and FcεRI-induced kinase activity of Syk in RBL-2H3 cells; format: cell-based
T1 construct: endogenous in cells; host or cells: RBL-2H3
T1 sequence (Q64725 whole entry): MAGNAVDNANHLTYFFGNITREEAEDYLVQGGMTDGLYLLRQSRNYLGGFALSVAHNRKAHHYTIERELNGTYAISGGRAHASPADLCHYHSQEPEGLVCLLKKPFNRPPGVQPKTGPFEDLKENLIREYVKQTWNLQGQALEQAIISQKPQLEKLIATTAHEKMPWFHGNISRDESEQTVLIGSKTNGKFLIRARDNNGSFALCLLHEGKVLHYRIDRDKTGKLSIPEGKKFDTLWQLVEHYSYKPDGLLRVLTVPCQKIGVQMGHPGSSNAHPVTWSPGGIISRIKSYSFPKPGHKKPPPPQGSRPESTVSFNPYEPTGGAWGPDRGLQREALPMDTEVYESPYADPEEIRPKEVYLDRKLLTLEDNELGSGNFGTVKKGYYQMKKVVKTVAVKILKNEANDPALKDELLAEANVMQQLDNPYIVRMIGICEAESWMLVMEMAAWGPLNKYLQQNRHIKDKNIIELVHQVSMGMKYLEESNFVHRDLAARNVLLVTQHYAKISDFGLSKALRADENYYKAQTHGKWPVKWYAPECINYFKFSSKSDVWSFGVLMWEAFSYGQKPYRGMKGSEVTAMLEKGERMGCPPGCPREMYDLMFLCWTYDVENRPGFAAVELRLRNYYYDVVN

LAT = assay: Phosphorylation of LAT (phospho-specific antibodies); format: cell-based, rat; conditions: dose-dependent, RBL-2H3 cells
RBL-2H3 cells = assay: FACS analysis of IgE-dependent calcium flow; format: cell-based, rat; conditions: mast cells
Method: FIG. 3. C-13 inhibits FcεRI-dependent calcium release and degranulation. A. FACS analysis of IgE-dependent calcium flow in RBL-2H3 cells. B. Release of β-hexosaminidase in RBL-2H3 cells sensitised with IgE/DNP. C. Release of β-hexosamlnidase and, D. titration of TNF-α in BMMCs cells sensitised with IgE/DNP; C-13: 3 μM. E. FACS analysis of FCεRI surface expression in RBL-2H3 cells. (0=0.25% DMF). Significant inhibition with C-13 versus DMF: **P<0.01 and *P<0.05.
Binding of Btk and Vav with SLP-76 is critical for regulating PLC-γ activity on the membrane, calcium mobilisation and granule exocytosis^27, 28.
• 1) Chemical products and antibodies. A chemical bank of 3000 molecules (a varied subset) was acquired from ChemBridge, Inc. (San Diego, Calif.). […] The binding of G4G11 with Syk was assessed by adding the 9E10 monoclonal antibody conjugated with HRP detecting the amino acid sequence EQKLISEEDLN of human c-myc protein located at the C-terminal end of the scFv fragment. To generate Syk mutants, targeted mutagenesis was used on GST:Syk 6-242 protein and the binding of G4G11 with the mutants was assessed in the presence of 5 μM of C-13. • 3) Cells, culture conditions and functional tests. […]

COC(=O)c1ccccc1-c1ccc(/C=C2/SC(=S)N(Cc3ccccc3)C2=O)o1 [Molecule C-13, methyl 2-{5-[(3-benzyl-4-oxo-2-thioxo-1,3-thiazolidin-5-ylidene)methyl]-2-furyl}benzoate]
colour of ears and tail (Evans blue extravasation) in PSA (BALB/c mice; oral administration of 130 mg/kg): light blue colour | hypothermia (drop in body temperature) in PSA (BALB/c mice; single oral dose of 100 mg/kg): inhibited hypothermia | phosphorylation and FcεRI-induced kinase activity of Syk (Syk): did not affect | phosphorylation of LAT (LAT): increases | calcium flow in response to FcεRI binding (RBL-2H3 cells): reduced calcium flow range
